Entries after “also recorded” stand apart in the source; their conditions may differ.

The results in this text go back to US12102633B2, “Spirolactone compounds” (Quixgen, Inc., priority 2017, dated 2024).

In series [1] the test system is T1, Mouse ACC (ACC protein purified from liver).
T1 construct: ACC protein was purified by taking advantage of the biotinylation in the carboxylase domain
The series can be described thus: Mouse ACC enzymatic activity assay. Format: biochemical. To be noted: read-out: EA-CoA mACC IC50. On the procedure:
ACC protein was purified by taking advantage of the biotinylation in the carboxylase domain. Male C57BL/6J mice (Jackson Laboratory) at 8-12 weeks of age were euthanized by using CO2 inhalation method and liver was immediately frozen on dry ice. To 100 mg liver was added 1 mL ice-cold tissue lysis buffer (20 mM Tris-HCl pH 7.5, 150 mM NaCl, 1 mM Na2EDTA, 1 mM EGTA, 1% Triton, 2.5 mM sodium pyrophosphate, 1 mM 3-glycerophosphate, 1 mM Na3VO4, 1 μg/mL leupeptin, 1 tablet of protease inhibitor cocktail (Roche) per 10 mL lysis buffer) followed by homogenization on ice with Power Gen 125 homogenizer (Fisher Scientific). After 30 min incubation on ice, tissue lysate was passed through a 10 mL syringe with 18½ G needle for 10 times to shear DNA. The lysate was then subject to 17.5%-35% saturated ammonium sulfate precipitation by adding 880 mg ammonium sulfate powder (Sigma) to 10 mL liver lysate in 10 min with stirring on ice. Sample was centrifuged at 14,000 rpm (Eppendorf) at 4° C. for 10 min and supernatant was saved for further precipitation by adding 880 mg ammonium sulfate powder to 10 ml supernatant in 10 min with stirring on ice. Sample was centrifuged at 14,000 rpm at 4° C. for 10 min. Supernatant was discarded and pellet was dissolved in 10 mL sample buffer (100 mM Tris-HCl, pH 7.5, 1 mM EDTA, 0.1 mM DTT, 0.5 M NaCl, and 5% glycerol). The sample was then added with 1 mL of Strep Mag beads slurry (Genscript) and rotated at 4° C. for 1 hour. Supernatant was discarded and beads were washed with sample buffer for 3 times. Protein was then eluted by adding 10 mL of 2 mM biotin (Promega) prepared in sample buffer. The eluate was then dialyzed at 4° C. for 1 hour by using Slide-A-Lyzer™ Dialysis Cassettes 10K MWCO (Thermo Fisher Scientific) against 3 changes of 200 mL dialysis buffer (50 mM HEPES, pH 7.5, 0.1 mM DTT, 1.0 mM EDTA, and 10% glycerol). Total protein concentration was then quantitated by using BCA protein assay kit (Pierce).
For ACC enzymatic activity assay, 1 μL serial diluted compounds prepared in DMSO in duplicate were mixed with 8 μL dialyzed sample at 37° C. for 10 min. Ninety one L of reaction buffer (50 mM HEPES pH 7.5, 10 mM MgCl2, 2.0 mM DTT, 0.5 mM acetyl-CoA, 4.0 mM ATP, 15 mM ^13C-NaHCO3, 0.75 mg/mL BSA, 0.5 mM sodium citrate) was added to the tube and mixed thoroughly. After incubation at 37° C. for 1 hour, 300 μl ice-cold quenching buffer (acetonitrile:methanol=1:1, 20 μM carbutamide as internal standard) was added to each tube and mixed well to terminate the reaction. Samples were centrifuged at 14,000 rpm for 10 min (Eppendorf) and supernatant was loaded onto LC-MS/MS for quantitation of malonyl-^13C-CoA (Gao et al., Journal of chromatography B, Analytical technologies in the biomedical and life sciences 853, 303-313 (2007)).
Shimadzu LC system was used for sample analysis consisting of system controller (Shimadzu CBM-20A), autosampler (Shimadzu SIL-20A), pump A and B (Shimadzu LC-20AD), column oven (Shimadzu CTO-20A), and analytical column (Phenomenex Gemini 5u C18 11A, 100×2 mm). LC was running at 200 μL/min in the binary gradient mode with mobile phase A (5 mM Ammonium Acetate and 5 mM DMBA in water (1,3-Dimethylbutylamine)) and B (methanol). The samples were analyzed on an AB Sciex QTrap4000 LC-MS/MS triple quadrupole mass spectrometer (Applied Biosystems). Malonyl-CoA and malonyl-13C-CoA were monitored in positive ion mode following MRM transitions at 854.2/347.1 and 855.1/246.1, respectively. The product and internal standard were coeluted to the mass spectrometer in 3 s with 50% H2O, 25% MeCN, 25% acetone, and 5 mM ammonium acetate. Ion chromatograms were integrated using the Analyst 1.5.2 software. Peak area ratios were compared against a standard curve and final cellular concentration of malonyl-CoA or production rate of malonyl-13C-CoA was calculated as pmoles/mg protein per minute.

A further series deals with Human sebocytes. The series can be described thus: Proliferation of human sebocytes. Format: cell-based. Particulars: 24 hours, MTT, read-out: AP-Sebo IC50. On the procedure: Human sebocytes (Celprogen) and keratinocytes (ATCC) were grown in 96-well culture microplate (Coming) with growth media to around 50% confluency. Media was changed to growth media mixed with serially diluted compounds in DMSO (1:1000 dilution). After treatment for 24 hours, media was changed to 100 μL phenol red free DMEM and cell numbers were quantitated by using Vybrant® MTT Cell Proliferation Assay Kit (Molecular Probes). Ten μL of 12 mM MTT stock solution was added to each well and the microplate was incubated at 37° C. for 4 hours. Then 100 μL of the SDS-HCl solution was added to each well and mixed thoroughly using a pipette. The microplate was incubated at 37° C. for 4 hours in a cell culture incubator. The microplate was mixed again using a pipette and absorbance was read at 570 nm (Dynex MRX^e Magellan Biosciences). Effect of compounds on proliferation of human keratinocytes was calculated by % of DMSO vehicle control.

For a further series, the system named is 3T3-L1 adipocytes. As to the kind of experiment: Lipogenesis of 3T3-L1 adipocytes. Format: cell-based. Particulars: Mus musculus, TG readout, read-out: LG-3T3 IC50. The protocol: 3T3-L1 fibroblast cells (Zen-Bio) were grown in 96-well culture microplate (Corning) with growth media to around 90-100% confluency. Culture media was changed to differentiation media (growth media supplemented with 3-Isobutyl-1-Methylxanthine 500 μM, Dexamethasone 1 μM, insulin 10 μg/mL, and rosiglitazone 2 μM) plus serially diluted compounds prepared in DMSO (1:1000 dilution). After incubation for 2 days, media was changed to maintenance media (growth media supplemented with insulin 10 μg/mL) plus serially diluted compounds prepared in DMSO (1:1000 dilution) for around 1 week with media changed every 2 days. Upon completion of the treatment, culture media are discarded and 200 μL 0.01% SDS was added to each well and shaken for 1 hour to lyse the cells. Cell lysates were then transferred to 400 μL Folch's solution (chloroform: methanol=2:1) and mixed well. After centrifuge at 2,000 rpm for 20 min, 200 μL of the lower organic phase was transferred to a plate with 10 μL sample buffer (chloroform:Triton-100=3:1). Samples were blown dried under nitrogen and 200 μL triglyceride (TG) quantification reagent (Thermo Fisher Scientific) was added, mixed, and incubated at 37° C. for 30 min. TG concentration was determined by reading absorbance at 535 nm (Dynex MRX^e Magellan Biosciences) and calculated from standard curve.

In series [2] the test system is liver triglycerides (TG) in C57BL/6J mice. The series can be described thus: Chronic treatment for reducing liver triglycerides in C57BL/6J mice. Format: in vivo, mouse. To be noted: male C57BL/6J mice; 30 mg per kilogram body weight in PEG400, oral gavage once per day for 2 weeks; FIG. 1, vs vehicle. On the procedure:
Male C57BL/6J mice (Jackson Laboratory) at around 9 weeks of age were treated with vehicle (0.5% methylcellulose or PEG400) or Example 14 (30 mg per kilogram body weight, dosing solution prepared in PEG400) and Example 20 (20 mg per kilogram body weight, dosing solution prepared in 0.5% methylcellulose) by oral gavage at ˜9:00 am, once per day for 2 weeks. Concentrations of Example 14 and Example 20 were 15 mg/ml and 2 mg/ml, respectively. The dosing volumes of Example 14 and Example 20 were 2 ml per kilogram body weight and 10 ml per kilogram body weight, respectively. After 14-day treatment, animals were euthanized in CO2 at 2 hours post dose and liver was frozen and kept on dry ice. Liver TG was measured by extracting lipids with chloroform:methanol 2:1 (v/v) followed by quantitation with Infinity™ Triglycerides Reagent (Thermo Scientific).

Series [3] is described as follows: PK study in male C57 mouse for Examples 14 and 15. It counts as in vivo. To be noted: for concentration at 0.5 h: 0.50 h. On the procedure:
Pharmacokinetic studies were carried out with male C57 mouse. Compounds (Example 14 and Example 15) were each formulated in 5% DMSO+10% Solutol HS 15+85% Saline, and dosed at 1 mpk for IV injection (5 mL/kg) and 10 mpk for oral gavage (10 mUkg). Plasma samples at various time points were quantitated with LC-MS. Data reported were average of three mice.
Tables 1 and 2 below show plasma concentrations (ng/mL) and PK parameters of Example 14 in male C57 mouse after 1 mpk IV injection and 10 mpk PO gavage, respectively. The plasma concentration (ng/mL) of the acid compound, Example 15, was also measured and reported below.
Tables 3 and 4 below show plasma concentrations (ng/mL) and PK parameters of Example 15 in male C57 mouse after 1 mpk IV injection and 10 mpk PO gavage, respectively.

Setting [4] is: male, C57, mouse, plasma, iv, 1 mg/kg, Example 14 dosed 1 mpk IV, analyte = labelled compound.
Setting [5] is: male, C57, mouse, plasma, po, 10 mg/kg, Example 14 dosed 10 mpk PO gavage, analyte = labelled compound.
[6] abbreviates: plasma, 1 mg/kg, Example 14 dosed 1 mpk IV.

Turning to `CCc1ccc2c(c1)C(=O)OC1(CCN(C(=O)c3cc(OC)c4cccc(OC)c4c3)CC1)C2` [Example 3, 1′-(4,8-dimethoxy-2-naphthoyl)-7-ethylspiro[isochroman-3,4′-piperidin]-1-one], the values for the 50% inhibitory concentration (IC50) (in series [1]; in the series on Human sebocytes; with 3T3-L1 adipocytes) were 3.4 nM, 44.4 nM and 1.4 nM, respectively.

With `CCc1ccc2c(c1)C(=O)OC1(CCN(C(=O)c3cc(OC)c4cccc(OC)c4n3)CC1)C2` [Example 4, 1′-(4,8-dimethoxyquinoline-2-carbonyl)-7-ethylspiro[isochroman-3,4′-piperidin]-1-one], the IC50 in series [1] was 11.3 nM; in the series with Human sebocytes it was 148 nM; with 3T3-L1 adipocytes, 27.7 nM.

Take `COC(=O)c1cncc(-c2ccc3c(c2)C(=O)OC2(CCN(C(=O)c4cc(OC)c5cccc(OC)c5n4)CC2)C3)c1` [Example 14, methyl 5-(1′-(4,8-dimethoxyquinoline-2-carbonyl)-1-oxospiro[isochroman-3,4′-piperidin]-7-yl)nicotinate]: the “Liver TG” value in series [2] is “reduced liver triglycerides; also recorded: reduced liver TG”. The “Plasma Concentration, Mean” value in series [3] (Example 14 dosed 1 mpk IV, 8.00 h, analyte = labelled compound) is given as “BLQ”. Besides, the “Plasma Concentration, Mean” value in series [3] (Example 14 dosed 1 mpk IV, 24.00 h, analyte = labelled compound) is on record as “BLQ”. Further, the F in series [3] (Example 14 dosed 10 mpk PO gavage) is 88%. The “Plasma Concentration, Mean” value in series [3] (Example 14 dosed 10 mpk PO gavage, 24.00 h, analyte = labelled compound) is recorded as “BLQ”. Further, the MRT in series [3] (male, C57, mouse, plasma, iv, 1 mg/kg, Example 14 dosed 1 mpk IV) was 24.6 min. Further, in series [3] (male, C57, mouse, plasma, iv, 1 mg/kg, Example 14 dosed 1 mpk IV, 0.08 h, analyte = labelled compound), the concentration at 0.08 h came to 1880 ng/mL. In series [3] (setting [4]), the concentration at 0.25 h is 1080 ng/mL, the concentration at 0.5 h came out at 521 ng/mL, the concentration at 1 h worked out at 199 ng/mL and the concentration at 2 h stood at 30 ng/mL. This molecule also gave a concentration at 4 h in series [3] (setting [4]) of 4.4 ng/mL. In series [3] (setting [5]), this molecule returned a concentration at 0.25 h of 3660 ng/mL, a concentration at 0.5 h of 5970 ng/mL, a concentration at 1 h of 3160 ng/mL and a concentration at 2 h of 1010 ng/mL. In series [3] (setting [5]), the concentration at 4 h was 345 ng/mL, the concentration peaked (Cmax) at 6330 ng/mL, the MRT worked out at 96 min and the time to peak (Tmax) came to 25.2 min. Besides, the concentration at 8 h in series [3] (male, C57, mouse, plasma, po, 10 mg/kg, Example 14 dosed 10 mpk PO gavage, 8.00 h, analyte = labelled compound) came out at 125 ng/mL. Moreover, in series [3] (setting [6]), the distribution volume (Vd) was found to be 0.49 L/kg, the clearance was determined as 18.5 mL/min/kg and the half-life was 19.2 min.

The IC50 is the midpoint of a concentration-inhibition curve. What is called MRT is the average time that molecules of a dose stay in the body. For orientation: Cmax means the highest concentration seen after dosing. Broadly, the Tmax is the time at which the peak concentration occurs. For orientation: Vd means a proportionality between amount in the body and measured concentration, not a real space. By clearance is commonly meant a measure of how efficiently the substance is removed, as volume per time. Broadly, the half-life is the time in which the quantity being followed falls by half. The low end stands for fast loss, the high end for slow loss.
